The text below walks through data of patent US7652047B2, “Phenylamino isothiazole carboxamidines as MEK inhibitors” (Ardea Biosciences, Inc., priority 2005, dated 2010).

Like-named read-outs stand apart in the source and are kept apart here.

For the experiment, the target named is T1, MEK1^CA (human GST-MEK1, constitutively active, Ser218Asp and Ser222Asp) (Homo sapiens, UniProt Q02750, S218D/S222D).
T1 construct: GST; made in house; host or cells: Escherichia coli
Nature of the experiment: MEK1 enzymatic activity assay (MEK1^CA / ERK2 / MBP, [γ-33P]ATP incorporation). The experiment is classed as biochemical. The text has this:
Materials and preparation of reagents: Human GST-MEK1 and the constitutively active allele GST-MEK1^CA (harboring the mutations Ser218Asp and Ser222Asp) were subcloned into the […] expression vector pGEM4Z (Promega, Madison, Wis.) from the wild type human MEK1 cDNA. GST-MEK1^CA was expressed in Escherichia coli and partially purified using Glutathione Sepharose 4B affinity resin (Amersham Pharmacia Biotech, Piscataway, N.J.). The ERK2 allele was subcloned from MAPK2/Erk2 cDNA (wild type) in pUSEamp (Upstate Biotechnology, Inc., Waltham, Mass.) into the vector pET21a (Novagen, Madison, Wis.) resulting in an N-terminal histidine-tagged mouse ERK2 allele. […] Myelin basic protein (MBP) was purchased from Gibco BRL (Rockville, Md.). EasyTides adenosine 5′-triphosphate (ATP) ([γ-^33P]) (NEN Perkin Elmer, Wellesley, Mass.) was the source of radiolabel for all kinase reactions. Activated Raf-1 (truncated) and activated MAPKinase 2/ERK2 were purchased from Upstate, Inc. (Lake Placid, N.Y.). 4-20% Criterion Precast gels were purchased from Bio-Rad (Hercules, Calif.).
A typical 25-microliter assay contained 0.002 nanomoles MEK1^CA, 0.02 nanomoles ERK2, 0.25 nanomoles MBP, 0.25 nanomoles unlabeled ATP, and 0.1 μCi [γ^33P] ATP. The screening assay essentially comprised four additions. Five μl of diluted compound were dispensed to 96-well assay plates. Ten μl of 2.5× enzyme cocktail (MEK1^CA and ERK2 only) were then added to each well followed by a pre-incubation for 30 minutes at ambient temperature. […] Finally, 100 μl of 10% trichloroacetic acid (TCA) were added and incubated for 30 minutes at room temperature to halt the reaction and precipitate radiolabeled protein products. Reaction products were harvested on glass fiber 96 well filter plates prewetted with water and 1% pyrophosphate. The filter plate was then washed 5 times with water. Water was displaced by absolute ethanol and the plate was allowed to air dry for 30 minutes at room temperature. A back seal was applied manually and 40 μl of scintillation cocktail were dispensed to each well. A top seal was applied and the plate was counted in the TopCount for two seconds per well.

Setting [1] is: Table 1, compounds of formula I, read-out: Avg IC50.
The mark [2] stands for this setting: Table 2, Ar1-A contains an amido or indolo group, read-out: IC 50.

T1 sequence (Q02750 whole entry S218D/S222D): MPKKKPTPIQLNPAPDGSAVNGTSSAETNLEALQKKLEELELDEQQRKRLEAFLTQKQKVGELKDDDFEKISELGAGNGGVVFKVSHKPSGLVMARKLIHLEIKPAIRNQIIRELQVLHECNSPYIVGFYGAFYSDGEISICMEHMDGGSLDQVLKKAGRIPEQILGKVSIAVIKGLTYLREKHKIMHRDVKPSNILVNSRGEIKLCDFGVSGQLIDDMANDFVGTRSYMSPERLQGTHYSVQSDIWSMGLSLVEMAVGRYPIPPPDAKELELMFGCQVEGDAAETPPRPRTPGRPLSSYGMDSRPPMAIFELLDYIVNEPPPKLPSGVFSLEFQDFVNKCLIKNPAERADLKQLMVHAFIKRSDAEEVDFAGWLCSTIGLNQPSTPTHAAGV

Regarding `N=C(NCc1ccccc1)c1c(O)nsc1Nc1ccc(C(=O)c2ccccc2)cc1`, under “Table 4, R' is (CH2)1 or 2-G, read-out: IC50”, the IC50 fell in the range of 100 to 500 nM. `CNC(=N)c1c(O)nsc1Nc1ccc(C)cc1` [Cpd 1]: the IC50 under setting [1] lay in the range of 100 to 500 nM. The same measure, in the same setting: the same measure for `Cc1ccc(Nc2snc(O)c2C(=N)NC2CCCC2)cc1` [Cpd 2]: 100 to 500 nM. Still for that read-out and setting: the value for `Cc1ccc(Nc2snc(O)c2/C(N)=N/O)cc1` [Cpd 3] was > 500 nM; that for `Cc1ccc(Nc2snc(O)c2C(=N)NCCN2CCOCC2)cc1` [Cpd 4] was 100 to 500 nM; that for `Cc1ccc(Nc2snc(O)c2C(=N)NN2CCOCC2)cc1` [Cpd 5] was 100 to 500 nM. Still for that read-out and setting: the same measure for `N=C(NN1CCOCC1)c1c(O)nsc1Nc1ccc(Oc2ccccc2)cc1` [Cpd 6]: 1 to 100 nM.

`Cc1ccc(Nc2snc(O)c2C(=N)NN2CCCCC2)cc1` [Cpd 7]: the IC50 under setting [1] fell in the range of 100 to 500 nM. The same measure, in the same setting: the value for `Cc1ccc(Nc2snc(O)c2C(=N)N2CCc3ccccc3C2)cc1` [Cpd 8] was > 500 nM; that for `N=C(NCCCCO)c1c(O)nsc1Nc1ccc(Oc2ccccc2)cc1` [Cpd 9] was 1 to 100 nM. Same read-out and setting: the same measure for `CCCCCCCNC(=N)c1c(O)nsc1Nc1ccc(Oc2ccccc2)cc1` [Cpd 10]: 1 to 100 nM; for `N=C(NC1CCCCC1)c1c(O)nsc1Nc1ccc(Oc2ccccc2)cc1` [Cpd 11]: 1 to 100 nM; for `N=C(NC1CCCC1)c1c(O)nsc1Nc1ccc(Oc2ccccc2)cc1` [Cpd 12]: 1 to 100 nM. Regarding `N=C(NCCC1=CCCCC1)c1c(O)nsc1Nc1ccc(Oc2ccccc2)cc1` [Cpd 13], the IC50 under setting [1] is 1 to 100 nM. The same measure, in the same setting: the value for `N=C(NCCc1ccccc1)c1c(O)nsc1Nc1ccc(Oc2ccccc2)cc1` [Cpd 14] was 100 to 500 nM; that for `CC(CNC(=N)c1c(O)nsc1Nc1ccc(Oc2ccccc2)cc1)c1ccccc1` (centres unmarked) [Cpd 15] was 1 to 100 nM; that for `N=C(NC1CCC1)c1c(O)nsc1Nc1ccc(Oc2ccccc2)cc1` [Cpd 16] was 1 to 100 nM.

For `N=C(NCCc1cccc(F)c1)c1c(O)nsc1Nc1ccc(Oc2ccccc2)cc1` [Cpd 17], the IC50 under setting [1] was 100 to 500 nM. For `N=C(NCCc1cccs1)c1c(O)nsc1Nc1ccc(Oc2ccccc2)cc1` [Cpd 18], under setting [1], the IC50 is 100 to 500 nM. With `N=C(NCC1CC1)c1c(O)nsc1Nc1ccc(Oc2ccccc2)cc1` [Cpd 19], under setting [1], the IC50 was 1 to 100 nM. With `N=C(NCc1ccccc1)c1c(O)nsc1Nc1ccc(Oc2ccccc2)cc1` [Cpd 20], the IC50 under setting [1] lay in the range of 100 to 500 nM. As to `N=C(NCc1ccc(C(F)(F)F)cc1)c1c(O)nsc1Nc1ccc(Oc2ccccc2)cc1` [Cpd 21], under setting [1], the IC50 fell in the range of 1 to 100 nM. The same measure, in the same setting: the value for `N=C(N[C@@H]1CC2CCC1C2)c1c(O)nsc1Nc1ccc(Oc2ccccc2)cc1` (some centres unmarked) [Cpd 22] was 1 to 100 nM; that for `N=C(NC1CCCCCC1)c1c(O)nsc1Nc1ccc(Oc2ccccc2)cc1` [Cpd 23] was 1 to 100 nM.

As to `Cn1sc(Nc2ccc(Oc3ccccc3)cc2)c(C(=N)NC2CCCC2)c1=O` [Cpd 24], the IC50 under setting [1] was > 500 nM. Still for that read-out and setting: the value for `N=C(NCC1CCCO1)c1c(O)nsc1Nc1ccc(Oc2ccccc2)cc1` (centres unmarked) [Cpd 25] was 1 to 100 nM.

Consider `N=C(NCCN1CCOCC1)c1c(Nc2ccc(Oc3ccccc3)cc2)s[nH]c1=O` [Cpd 26], for which, under setting [1], the IC50 is > 500 nM.

Consider `CCCCNC(=N)c1c(O)nsc1Nc1ccc(Oc2ccccc2)cc1` [Cpd 27], for which, under setting [1], the IC50 is 100 to 500 nM.

In the case of `CC(C)NC(=N)c1c(O)nsc1Nc1ccc(Oc2ccccc2)cc1` [Cpd 28], the IC50 under setting [1] lay within 1 to 100 nM.

As for `N/C(=N\CC1CCCCC1)c1c(O)nsc1Nc1ccccc1C(=O)NCC1CCCCC1` [E-1], under setting [2], the IC50 is > 1000 nM. For `N=C(NCC1CCCCC1)c1c(O)nsc1Nc1ccc(S(=O)(=O)Nc2ccccc2)cc1` [E-2], the IC50 under setting [2] is > 1000 nM. As to `N=C(NCC1CCCCC1)c1c(O)nsc1Nc1ccc(C(=O)Nc2ccccc2)cc1` [E-4], under setting [2], the IC50 was > 1000 nM.

Regarding `CC(CO)NC(=N)c1c(O)nsc1Nc1ccc(C(=O)Nc2ccccc2)cc1` (centres unmarked) [E-5], the IC50 under setting [2] was > 1000 nM. Same read-out and setting: the same measure for `N=C(NCCCCO)c1c(O)nsc1Nc1ccc(C(=O)Nc2ccccc2)cc1` [E-6]: > 1000 nM; for `CC(C)NC(=N)c1c(O)nsc1Nc1ccc(C(=O)Nc2ccccc2)cc1` [E-7]: > 1000 nM. `N=C(NCCO)c1c(O)nsc1Nc1ccc(C(=O)Nc2ccccc2)cc1` [E-8]: under setting [2], the IC50 fell in the range of 200 to 1000 nM.

In the case of `CC(C)NC(=N)c1c(O)nsc1Nc1ccc(C(=O)NC(C)C)cc1` [E-9], the IC50 under setting [2] fell in the range of 200 to 1000 nM.

As for `CC(C)NC(=N)c1c(O)nsc1Nc1ccc(C(=O)N2CCc3ccccc32)cc1` [E-10], the IC50 under setting [2] is 1 to 200 nM. The same measure, in the same setting: the same measure for `N=C(NCCCO)c1c(O)nsc1Nc1ccc(C(=O)N2CCc3ccccc32)cc1` [E-11]: 1 to 200 nM; for `N=C(NCC(O)CO)c1c(O)nsc1Nc1ccc(C(=O)N2CCc3ccccc32)cc1` (centres unmarked) [E-12]: 200 to 1000 nM. Still for that read-out and setting: the value for `N=C(NCCO)c1c(O)nsc1Nc1ccc(C(=O)N2CCc3ccccc32)cc1` [E-13] was > 1000 nM; that for `N=C(NCCCCO)c1c(O)nsc1Nc1ccc(C(=O)N2CCc3ccccc32)cc1` [E-14] was > 1000 nM. Same read-out and setting: the same measure for `N=C(NCCCCO)c1c(O)nsc1Nc1ccc(C(=O)NCCCCO)cc1` [E-15]: > 1000 nM; for `CC(CO)NC(=N)c1c(O)nsc1Nc1ccc(C(=O)N2CCc3ccccc32)cc1` (centres unmarked) [E-16]: 1 to 200 nM; for `CC(CO)NC(=N)c1c(O)nsc1Nc1ccc(C(=O)N2CCN(C)CC2)cc1` (centres unmarked) [E-17]: > 1000 nM. For the compound `CN1CCN(C(=O)c2ccc(Nc3snc(O)c3C(=N)NCCO)cc2)CC1` [E-18], the IC50 under setting [2] was > 1000 nM.

On to `CC(C)NC(=N)c1c(O)nsc1Nc1ccc(C(=O)N2CCN(C)CC2)cc1` [E-19], for which the IC50 under setting [2] is > 1000 nM. Still for that read-out and setting: the same measure for `N=C(N)c1c(O)nsc1Nc1ccc(C(=O)N2CCc3cc(Br)ccc32)cc1` [E-20]: 1 to 200 nM. Same read-out and setting: the value for `CNC(=N)c1c(O)nsc1Nc1ccc(C(=O)N2CCc3cc(Cl)ccc32)cc1` [E-21] was 200 to 1000 nM. For the compound `CNC(=N)c1c(O)nsc1Nc1ccc(C(=O)N2CCc3cc(F)ccc32)cc1` [E-22], the IC50 under setting [2] is > 1000 nM.

For `CC(NC(=N)c1c(O)nsc1Nc1ccc(Oc2ccccc2)cc1)c1ccc(F)cc1` (centres unmarked) [compound 29], the IC50 under setting [1] lay within 100 to 500 nM.

As to `CCOC(=O)N1CCC(NC(=N)c2c(O)nsc2Nc2ccc(Oc3ccccc3)cc2)CC1` [compound 30], the IC50 under setting [1] is 100 to 500 nM. The same measure, in the same setting: the same measure for `N=C(NCCCO)c1c(O)nsc1Nc1ccc(Oc2ccccc2)cc1` [compound 31]: 1 to 100 nM; for `N=C(NCCCCCCO)c1c(O)nsc1Nc1ccc(Oc2ccccc2)cc1` [compound 32]: 1 to 100 nM. Turning to `N=C(NCCO)c1c(O)nsc1Nc1ccc(Oc2ccccc2)cc1` [compound 33], under setting [1], the IC50 was 1 to 100 nM. On the same count and under the same terms, the same measure for `C[C@H](NC(=N)c1c(O)nsc1Nc1ccc(Oc2ccccc2)cc1)c1ccccc1` [compound 34]: 100 to 500 nM; for `CC(C)CC(C)NC(=N)c1c(O)nsc1Nc1ccc(Oc2ccccc2)cc1` (centres unmarked) [compound 35]: 100 to 500 nM; for `N=C(NCCOc1ccccc1)c1c(O)nsc1Nc1ccc(Oc2ccccc2)cc1` [compound 36]: 100 to 500 nM. On the same count and under the same terms, the value for `N=C(NCC1CCCCC1)c1c(O)nsc1Nc1ccc(Oc2ccccc2)cc1` [compound 37] was 1 to 100 nM; that for `N=C(NCc1ccccn1)c1c(O)nsc1Nc1ccc(Oc2ccccc2)cc1` [compound 38] was 100 to 500 nM. On the same count and under the same terms, the same measure for `N=C(NCCCN1CCCC1=O)c1c(O)nsc1Nc1ccc(Oc2ccccc2)cc1` [compound 39]: 1 to 100 nM. Turning to `N=C(NCC(O)CO)c1c(O)nsc1Nc1ccc(Oc2ccccc2)cc1` (centres unmarked) [compound 40], under setting [1], the IC50 lay in the range of 1 to 100 nM. Same read-out and setting: the same measure for `CC(C)(C)CCNC(=N)c1c(O)nsc1Nc1ccc(Oc2ccccc2)cc1` [compound 41]: 100 to 500 nM. The same measure, in the same setting: the value for `CC(C)(C)CCNC(=N)c1c(O)nsc1Nc1ccc(Oc2ccccc2)cc1` [compound 42] was 1 to 100 nM; that for `CC(C)CCNC(=N)c1nsc(Nc2ccc(Oc3ccccc3)cc2)c1O` [compound 43] was 1 to 100 nM. Same read-out and setting: the same measure for `N=C(NC1CC1)c1c(O)nsc1Nc1ccc(Oc2ccccc2)cc1` [compound 44]: > 500 nM; for `N=C(NCc1cccc2ccccc12)c1c(O)nsc1Nc1ccc(Oc2ccccc2)cc1` [compound 45]: 1 to 100 nM.

On to `CC1(C)C2CCC1[C@H](CNC(=N)c1c(O)nsc1Nc1ccc(Oc3ccccc3)cc1)CC2` (some centres unmarked) [compound 46], for which the IC50 under setting [1] was 1 to 100 nM. On the same count and under the same terms, the value for `CC1(C)OCC(CNC(=N)c2c(O)nsc2Nc2ccc(Oc3ccccc3)cc2)O1` (centres unmarked) [compound 47] was 1 to 100 nM; that for `N=C(NCC(c1ccccc1)c1ccccc1)c1c(O)nsc1Nc1ccc(Oc2ccccc2)cc1` [compound 48] was 1 to 100 nM.

For `CCOCCCNC(=N)c1c(O)nsc1Nc1ccc(Oc2ccccc2)cc1` [compound 49], under setting [1], the IC50 is 1 to 100 nM.
